Reference: patent US20090105217A1, “2-PHENYL-5-AMINO-1,3,4-OXADIAZOLES AND THEIR USE AS NICOTINIC ACETYLCHOLINE RECEPTOR LIGANDS” (priority 2007, published 2009)
Structures can show the parent of a compound that is named as a salt.

The compounds below were run against T1, human α7 nAChR (Homo sapiens, UniProt P36544) (assay: α7 nAChR FLIPR (Fluorometric Imaging Plate Reader) Ca2+ assay, agonist EC50). Details: GH4C1 cells stably transfected with human α7 nAChR; Fluo-4 Ca2+ fluorescence; Examples 194 to 205 tested as the HCl salt; read-out: pEC50 value (negative logarithm of the agonist EC50) (converted).
T1 construct: host or cells: GH4C1 cells (pituitary tumor, immortalized cell line)
Type: cell-based
Method: α7 nAChR FLIPR® (Fluorometric Imaging Plate Reader) Assay
Function of the heterologous expressed α7 nAChR was assessed by a FLIPR-Ca^2+ assay. Since nAChRs are non-selective cation channels with high permeability to Ca^2+, these studies were carried out by measuring changes of intracellular Ca^2+ concentration using the Ca^2+-chelating fluorescent dye Fluo-4 and FLIPR® (Fluorometric Imaging Plate Reader) technology.
GH4C1cells (pituitary tumor, immortalized cell line) stably transfected with human α7 nAChR (Biocat ID 96986), were thawed, suspended in growth medium (Ham's Nutrient Mixture F10—Ham's F10, Invitrogen 31550-023, 15% Horse Serum heat inactivated—Invitrogen 26050-047, 2.5% Foetal Bovine Serum—FBS, Gibco 10500-064, 200 μg/ml Hygromycin B—Invitrogen, 10687-010, 10 mg/L Phenol Red—Sigma, P 0290, 1 mM Glutamine—Invitrogen, 25030-024) and plated in 500 cm^2 Triple Flask.
Cells were then incubated at 30° C., 5% CO2 for 72 hours.
On the day of the experiment, cells were washed twice with Assay Buffer (AB) (145 mM NaCl, 5 mM KCl, 1 mM MgCl2, 2 mM CaCl2, 20 mM HEPES, 5.5 mM Glucose pH=7.3) containing 2.5 mM Probenecid. Changes in the intracellular Ca^2+ content of stably transfected cells were measured using the Ca^2+ chelating dye Fluo-4 (Tef Labs 0152) in conjunction with a FLIPR® (Molecular Devices). The cell permeant dye Fluo-4 was prepared to a concentration of 1 mM in 100% DMSO and 10% Pluronic acid. The dye was then diluted with AB to a final concentration of 2 μM and placed on the cells. After 45-60 minutes dye loading incubation at 37° C., the unincorporated dye was removed from the cells by washing (80 μL, 3 times) with AB, and a final volume of 30 μL/well of AB was left in each well.
Plates containing test compounds (dissolved in 100% DMSO at 2 mM and serially diluted with DMSO) were copied into “daughter” plates (1 μL/well dispensation). Just prior to starting the assay, the “daughter” plate was diluted with 50 μL/well of AB.
The plates were then placed in the FLIPR®, and cell fluorescence was determined before drug addition (30 seconds) and monitored (excitation 488 nm, emission 510-580 nm) immediately following exposure to compounds. Maximum fluorescence values were recorded and fitted for agonist EC50 calculations.
The results are expressed as pEC50 values. A pEC50 is the negative logarithm of the agonist EC50 calculation as determined in the α7 nAChR FLIPR® assay. […] Variations in pEC50 may arise between tests.

T1 sequence (P36544 23-502): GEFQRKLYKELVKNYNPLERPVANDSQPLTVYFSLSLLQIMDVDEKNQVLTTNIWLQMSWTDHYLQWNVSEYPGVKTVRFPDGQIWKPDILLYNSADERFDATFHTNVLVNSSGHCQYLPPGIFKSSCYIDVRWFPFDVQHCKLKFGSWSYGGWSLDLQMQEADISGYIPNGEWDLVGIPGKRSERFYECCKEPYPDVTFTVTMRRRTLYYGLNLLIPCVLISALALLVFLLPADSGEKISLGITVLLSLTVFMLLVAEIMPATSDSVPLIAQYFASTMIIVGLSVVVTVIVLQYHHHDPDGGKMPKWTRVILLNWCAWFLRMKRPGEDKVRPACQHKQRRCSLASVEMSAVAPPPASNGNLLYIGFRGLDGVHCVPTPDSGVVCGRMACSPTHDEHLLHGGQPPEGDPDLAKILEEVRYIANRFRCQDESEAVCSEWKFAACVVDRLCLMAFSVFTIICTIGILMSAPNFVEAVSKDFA

Question: How did the EC50 turn out when `CCN(CC)CCCNc1nnc(-c2ccc(NC(=O)C3CCCCC3)cc2F)o1` [Example 59, N-[4-(5-{[3-(diethylamino)propyl]amino}-1,3,4-oxadiazol-2-yl)-3-fluorophenyl]cyclohexanecarboxamide] was run?
Answer: Its EC50 is ≤ 1 µM.

Question: For `O=C(Nc1ccc(-c2nnc(NCCCCN3CCCC3)o2)c(C(F)(F)F)c1)C1CCCCC1` [Example 64, N-[4-(5-{[4-(1-pyrrolidinyl)butyl]amino}-1,3,4-oxadiazol-2-yl)-3-(trifiuoromethyl)phenyl]cyclohexanecarboxamide], which EC50 is on record?
Answer: The EC50 was ≤ 1 µM.

Question: For `COc1cc(NC(=O)c2ccccc2F)ccc1-c1nnc(NCCCN2CCCC2)o1` [Example 126, 2-fluoro-N-[3-(methyloxy)-4-(5-{[3-(1-pyrrolidinyl)propyl]amino}-1,3,4-oxadiazol-2-yl)phenyl]benzamide], which EC50 is on record?
Answer: The EC50 was ≤ 1 µM.

Question: How did the EC50 turn out when `COc1cc(NC(=O)c2ccccc2)ccc1-c1nnc(NCCCCN2CCCC2)o1` [Example 76, N-[3-(methyloxy)-4-(5-{[4-(1-pyrrolidinyl)butyl]amino}-1,3,4-oxadiazol-2-yl)phenyl]benzamide] was run?
Answer: Its EC50 is ≤ 0.1 µM.

Question: For `CCN(CC)CCCNc1nnc(-c2ccc(NC(=O)C3CCCCC3)cc2Cl)o1` [Example 159, N-[3-chloro-4-(5-{[3-(diethylamino)propyl]amino}-1,3,4-oxadiazol-2-yl)phenyl]cyclohexanecarboxamide], which EC50 is on record?
Answer: Its EC50 is ≤ 1 µM.

Question: For `O=C(Nc1ccc(-c2nnc(NCCCCN3CCCC3)o2)c(Cl)c1)c1ccccc1F` [Example 153, N-[3-chloro-4-(5-{[4-(1-pyrrolidinyl)butyl]amino}-1,3,4-oxadiazol-2-yl)phenyl]-2-fluorobenzamide], which EC50 is on record?
Answer: The EC50 was ≤ 0.1 µM.

Question: For `COc1cc(NC(=O)c2ccccc2)ccc1-c1nnc(NCCCN2CCN3CCC2CC3)o1` [Example 122, N-[4-(5-{[3-(1,4-diazabicyclo[3.2.2]non-4-yl)propyl]amino}-1,3,4-oxadiazol-2-yl)-3-(methyloxy)phenyl]benzamide], which EC50 is on record?
Answer: Its EC50 is ≤ 0.1 µM.

Question: `CCC(C)N(C)CCCNc1nnc(-c2ccc(NC(=O)c3ccccc3F)cc2)o1` (stereo not drawn) [Example 136, 2-fluoro-N-{4-[5-({3-[methyl(1-methylpropyl)amino]propyl}amino)-1,3,4-oxadiazol-2-yl]phenyl}benzamide] was tested. Which EC50 did it give?
Answer: Its EC50 is ≤ 1 µM.

Question: How did the EC50 turn out when `CCN(CC)CCCCNc1nnc(-c2ccc(NC(=O)c3ccccc3F)cc2Cl)o1` [Example 156, N-[3-chloro-4-(5-{[4-(diethylamino)butyl]amino}-1,3,4-oxadiazol-2-yl)phenyl]-2-fluorobenzamide] was run?
Answer: The EC50 was ≤ 0.1 µM.

Question: How did the EC50 turn out when `CCc1cc(NC(=O)c2ccccc2F)ccc1-c1nnc(NCCCCN(CC)CC)o1` [Example 171, N-[4-(5-{[4-(diethylamino)butyl]amino}-1,3,4-oxadiazol-2-yl)-3-ethylphenyl]-2-fluorobenzamide] was run?
Answer: Its EC50 is ≤ 0.1 µM.

Question: `O=C(Nc1ccc(-c2nnc(NCCCN3CCCCC3)o2)c(C(F)(F)F)c1)c1ccccc1` [Example 97, N-[4-(5-{[3-(1-piperidinyl)propyl]amino}-1,3,4-oxadiazol-2-yl)-3-(trifluoromethyl)phenyl]benzamide] was tested. Which EC50 did it give?
Answer: The EC50 was ≤ 1 µM.

Question: How did the EC50 turn out when `O=C(Nc1ccc(-c2nnc(NCCCN3CCOCC3)o2)c(C(F)(F)F)c1)c1ccccc1` [Example 93, N-[4-(5-{[3-(4-morpholinyl)propyl]amino}-1,3,4-oxadiazol-2-yl)-3-(trifluoromethyl)phenyl]benzamide] was run?
Answer: The EC50 was ≤ 1 µM.

Question: How did the EC50 turn out when `COc1cc(NC(=O)c2ccccc2)ccc1-c1nnc(NCCCN2CCOCC2)o1` [Example 72, N-[3-(methyloxy)-4-(5-{[3-(4-morpholinyl)propyl]amino}-1,3,4-oxadiazol-2-yl)phenyl]benzamide] was run?
Answer: Its EC50 is ≤ 1 µM.

Question: Which EC50 does the source give for `CCN(CC)CCCNc1nnc(-c2ccc(NC(=O)c3ccccc3)cc2)o1` [Example 118, N-[4-(5-{[3-(diethylamino)propyl]amino}-1,3,4-oxadiazol-2-yl)phenyl]benzamide] here?
Answer: The EC50 was ≤ 1 µM.

Question: How did the EC50 turn out when `O=C(Nc1ccc(-c2nnc(NCCCCN3CCOCC3)o2)c(Cl)c1)c1ccccc1F` [Example 154, N-[3-chloro-4-(5-{[4-(4-morpholinyl)butyl]amino}-1,3,4-oxadiazol-2-yl)phenyl]-2-fluorobenzamide] was run?
Answer: Its EC50 is ≤ 0.1 µM.

Question: Which EC50 does the source give for `CCCC(=O)Nc1ccc(-c2nnc(NCCCN(CC)CC)o2)c(OC)c1` [Example 200, N-[4-(5-{[3-(Diethylamino)propyl]amino}-1,3,4-oxadiazol-2-yl)-3-(methyloxy)phenyl]butanamide] here?
Answer: Its EC50 is ≤ 1 µM.

Question: `COc1cc(NC(=O)c2ccccc2F)ccc1-c1nnc(NCCCCN2CCC(F)CC2)o1` [Example 145, 2-fluoro-N-[4-(5-{[4-(4-fluoro-1-piperidinyl)butyl]amino}-1,3,4-oxadiazol-2-yl)-3-(methyloxy)phenyl]benzamide] was tested. Which EC50 did it give?
Answer: Its EC50 is ≤ 0.1 µM.

Question: For `O=C(Nc1ccc(-c2nnc(NCCCN3CCCC3)o2)c(Cl)c1)c1ccccc1F` [Example 165, N-[3-chloro-4-(5-{[3-(1-pyrrolidinyl)propyl]amino}-1,3,4-oxadiazol-2-yl)phenyl]-2-fluorobenzamide], which EC50 is on record?
Answer: Its EC50 is ≤ 1 µM.

Question: How did the EC50 turn out when `O=C(Nc1ccc(-c2nnc(NCCCCN3CCCC3)o2)c(F)c1)C1CCCCC1` [Example 55, N-[3-fluoro-4-(5-{[4-(1-pyrrolidinyl)butyl]amino}-1,3,4-oxadiazol-2-yl)phenyl]cyclohexanecarboxamide] was run?
Answer: The EC50 was ≤ 0.1 µM.

Question: With `CCN(CC)CCCNc1nnc(-c2ccc(NC(=O)c3cccc(F)c3)cc2OC)o1` [Example 203, N-[4-(5-{[3-(Diethylamino)propyl]amino}-1,3,4-oxadiazol-2-yl)-3-(methyloxy)phenyl]-3-fluorobenzamide] as the compound, how does the EC50 read?
Answer: Its EC50 is ≤ 1 µM.

Question: `O=C(Nc1ccc(-c2nnc(NCCCCN3CCCCC3)o2)c(F)c1)c1ccccc1F` [Example 46, 2-fluoro-N-[3-fluoro-4-(5-{[4-(1-piperidinyl)butyl]amino}-1,3,4-oxadiazol-2-yl)phenyl]benzamide] was tested. Which EC50 did it give?
Answer: Its EC50 is ≤ 0.1 µM.

Question: With `CCN(CC)CCCNc1nnc(-c2ccc(NC(=O)C3CCCC3)cc2OC)o1` [Example 235, N-[4-(5-{[3-(diethylamino)propyl]amino}-1,3,4-oxadiazol-2-yl)-3-(methyloxy)phenyl]cyclo-pentanecarboxamidetrifluoroacetate] as the compound, how does the EC50 read?
Answer: Its EC50 is ≤ 1 µM.

Question: With `CCN(CC)CCCCNc1nnc(-c2ccc(NC(=O)c3ccccc3F)cc2F)o1` [Example 51, N-[4-(5-{[4-(diethylamino)butyl]amino}-1,3,4-oxadiazol-2-yl)-3-fluorophenyl]-2-fluorobenzamide] as the compound, how does the EC50 read?
Answer: Its EC50 is ≤ 1 µM.

Question: With `O=C(Nc1ccc(-c2nnc(NCCCCN3CCCC3)o2)c(C(F)(F)F)c1)c1ccccc1F` [Example 85, 2-fluoro-N-[4-(5-{[4-(1-pyrrolidinyl)butyl]amino}-1,3,4-oxadiazol-2-yl)-3-(trifluoromethyl)phenyl]benzamide] as the compound, how does the EC50 read?
Answer: The EC50 was ≤ 0.1 µM.

Question: Which EC50 does the source give for `O=C(Nc1ccc(-c2nnc(NCCCN3CCN4CCC3CC4)o2)c(F)c1)c1ccccc1F` [Example 121, N-[4-(5-{[3-(1,4-diazabicyclo[3.2.2]non-4-yl)propyl]amino}-1,3,4-oxadiazol-2-yl)-3-fluorophenyl]-2-fluorobenzamide] here?
Answer: Its EC50 is ≤ 0.1 µM.

Question: With `O=C(Nc1ccc(-c2nnc(NCCCN3CCCC3)o2)cc1)C1CCCCC1` [Example 146, N-[4-(5-{[3-(1-pyrrolidinyl)propyl]amino}-1,3,4-oxadiazol-2-yl)phenyl]cyclohexanecarboxamide] as the compound, how does the EC50 read?
Answer: Its EC50 is ≤ 1 µM.

Question: How did the EC50 turn out when `O=C(Nc1ccc(-c2nnc(NCCCN3CCCCC3)o2)cc1)c1ccsc1` [Example 10, N-[4-(5-{[3-(1-Piperidinyl)propyl]amino}-1,3,4-oxadiazol-2-yl)phenyl]-3-thiophenecarboxamidehydrochloride] was run?
Answer: Its EC50 is ≤ 1 µM.

Same assay, conditions: alpha 7 assay described in the Examples

Question: `CC(C)(C)C(=O)Nc1ccc(-c2nnc(NCCCN3CCCCC3)o2)cc1` [2,2-dimethyl-N-[4-(5-{[3-(1-piperidinyl)propyl]amino}-1,3,4-oxadiazol-2-yl)phenyl]propanamide] was tested. Which “activity in the alpha 7 assay” value did it give?
Answer: The value was “not found to have activity”.

Question: For `O=C(Nc1ccc(-c2nnc(NCCCN3CCCC(F)(F)C3)o2)cc1)c1ccccc1F` [N-[4-(5-{[3-(3,3-difluoro-1-piperidinyl)propyl]amino}-1,3,4-oxadiazol-2-yl)phenyl]-2-fluorobenzamide], which “activity in the alpha 7 assay” value is on record?
Answer: Its value is “not found to have activity”.

Question: With `CCN(CC)CCCNc1nnc(-c2ccc(NC(=O)c3ccc(OC)cc3)cc2)o1` [N-[4-(5-{[3-(Diethylamino)propyl]amino}-1,3,4-oxadiazol-2-yl)phenyl]-4-(methyloxy)benzamide] as the compound, how does the “activity in the alpha 7 assay” value read?
Answer: The value was “not found to have activity”.
